According to PubChem BioAssay (NCI):
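96-well plates; 48 h exposure; 5 concentrations. Endpoints by linear interpolation between flanking doses. Not reached: highest tested concentration assigned. Here, GI50 denotes the concentration required for 50% inhibition of growth. TGI is the concentration that stops growth completely.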

Assays:
Assay in all cases: NCI-60 cell line screen, 48 h
COLO 205 colon = test system: COLO 205 colon
U251 CNS = test system: U251 CNS
MALME-3M melanoma = test system: MALME-3M melanoma
HCT-15 colon = test system: HCT-15 colon
SK-MEL-5 melanoma = test system: SK-MEL-5 melanoma
SF-295 CNS = test system: SF-295 CNS
EKVX NSCLC = test system: EKVX NSCLC
SF-539 CNS = test system: SF-539 CNS
HT29 colon = test system: HT29 colon
OVCAR-5 ovarian = test system: OVCAR-5 ovarian
ACHN renal = test system: ACHN renal
LOX IMVI melanoma = test system: LOX IMVI melanoma
MDA-MB-435 = test system: MDA-MB-435
SN12C renal = test system: SN12C renal
K-562 leukemia = test system: K-562 leukemia
PC-3 prostate = test system: PC-3 prostate
SF-268 CNS = test system: SF-268 CNS
RPMI-8226 leukemia = test system: RPMI-8226 leukemia
UACC-62 melanoma = test system: UACC-62 melanoma
KM12 colon = test system: KM12 colon
HOP-92 NSCLC = test system: HOP-92 NSCLC
OVCAR-3 ovarian = test system: OVCAR-3 ovarian
SNB-75 CNS = test system: SNB-75 CNS
MOLT-4 leukemia = test system: MOLT-4 leukemia
M14 melanoma = test system: M14 melanoma
HOP-62 NSCLC = test system: HOP-62 NSCLC
SK-MEL-28 melanoma = test system: SK-MEL-28 melanoma
NCI-H460 lung = test system: NCI-H460 lung
HL-60(TB) leukemia = test system: HL-60(TB) leukemia
A549 NSCLC = test system: A549 NSCLC

CCOP(=O)(CC(F)(F)C(F)(F)F)OCC gave a TGI (COLO 205 colon) of 3.43 µM, a GI50 (U251 CNS) of 20.7 µM and a TGI (U251 CNS) of 60.2 µM. The GI50 (MALME-3M melanoma) was 1.83 µM, the TGI (MALME-3M melanoma) was 3.62 µM and the GI50 (HCT-15 colon) was 1.56 µM. It also gave a TGI (HCT-15 colon) of 3.73 µM, a GI50 (SK-MEL-5 melanoma) of 3.38 µM and a TGI (SK-MEL-5 melanoma) of 13.7 µM. The GI50 (SF-295 CNS) was 15.6 µM, the TGI (SF-295 CNS) was 33.2 µM and the GI50 (EKVX NSCLC) was 3.17 µM. It also gave a TGI (EKVX NSCLC) of 12.6 µM, a GI50 (SF-539 CNS) of 2.02 µM and a TGI (SF-539 CNS) of 4.75 µM. For the same molecule, the GI50 (HT29 colon) was 2.25 µM, the TGI (HT29 colon) was 4.96 µM and the GI50 (OVCAR-5 ovarian) was 17.6 µM. The TGI (OVCAR-5 ovarian) was 32.5 µM, the GI50 (ACHN renal) was 1.86 µM and the TGI (ACHN renal) was 3.55 µM. It also gave a GI50 (LOX IMVI melanoma) of 1.78 µM, a TGI (LOX IMVI melanoma) of 3.91 µM and a GI50 (MDA-MB-435) of 3.31 µM. It also gave a TGI (MDA-MB-435) of 14.5 µM, a GI50 (SN12C renal) of 16.6 µM and a TGI (SN12C renal) of 42.2 µM. For the same molecule, the GI50 (K-562 leukemia) was 2.62 µM, the TGI (K-562 leukemia) was 17.9 µM and the GI50 (PC-3 prostate) was 4.6 µM. The TGI (PC-3 prostate) was 25.6 µM, the GI50 (SF-268 CNS) was 17.9 µM and the TGI (SF-268 CNS) was 54.4 µM. It also gave a GI50 (RPMI-8226 leukemia) of 3.44 µM, a TGI (RPMI-8226 leukemia) of 13.1 µM and a GI50 (UACC-62 melanoma) of 2.35 µM. The TGI (UACC-62 melanoma) was 8.87 µM, the GI50 (KM12 colon) was 17.2 µM and the TGI (KM12 colon) was 33.6 µM. For the same molecule, the GI50 (HOP-92 NSCLC) was 3.37 µM, the TGI (HOP-92 NSCLC) was 10.7 µM and the GI50 (OVCAR-3 ovarian) was 2.76 µM. The TGI (OVCAR-3 ovarian) was 7.98 µM, the GI50 (SNB-75 CNS) was 1.95 µM and the TGI (SNB-75 CNS) was 36.7 µM. For the same molecule, the GI50 (MOLT-4 leukemia) was 1.92 µM, the TGI (MOLT-4 leukemia) was 10.3 µM and the GI50 (M14 melanoma) was 2.02 µM. For the same molecule, the TGI (M14 melanoma) was 5.31 µM, the GI50 (HOP-62 NSCLC) was 22.2 µM and the TGI (HOP-62 NSCLC) was 54.4 µM. The GI50 (SK-MEL-28 melanoma) was 1.82 µM, the TGI (SK-MEL-28 melanoma) was 3.85 µM and the GI50 (NCI-H460 lung) was 17 µM. The TGI (NCI-H460 lung) was 37.5 µM, the GI50 (HL-60(TB) leukemia) was 1.71 µM and the TGI (HL-60(TB) leukemia) was 5.89 µM. It also gave a GI50 (A549 NSCLC) of 30.7 µM and a TGI (A549 NSCLC) of over 100 µM.
